The text below walks through data of patent US7494671B2, “Extract of Trapa natans and methods of using the same” (priority 2002, dated 2009).

Type in all cases: cell-based
Details in all cases: 50 ul saturated solution in 1 ml of cell media, in vitro

For experiment [1], the system named is Lncap, prostate cancer cells. Briefly: Cancer cell proliferation assay, Lncap. The protocol: (§1) […] For comparison purposes, the effects of two anticancer drugs, cisplatin and paclitaxel, on the growth of the three types of cancel cells were also determined in vitro.
Experiment [2] deals with SW 480, colorectal cancer cells. Briefly: Cancer cell proliferation assay, SW 480. The method, then: as §1
Another experiment has as its system HTB 72, melanoma cells. Briefly: Cancer cell proliferation assay, HTB 72. The method, then: as §1

`CC(=O)O[C@H]1C(=O)[C@@]2(C)[C@H]([C@H](OC(=O)c3ccccc3)[C@]3(O)C[C@H](OC(=O)[C@H](O)[C@@H](NC(=O)c4ccccc4)c4ccccc4)C(C)=C1C3(C)C)[C@]1(OC(C)=O)CO[C@@H]1C[C@@H]2O` [Paclitaxel, paclitaxel]: the “Inhibition, % Lncap” value in experiment [1] is 57.98%. The “Inhibition, % SW 480” value in experiment [2] is 0.0%. In addition, the “Inhibition, % HTB 72” value in the experiment on HTB 72, melanoma cells turned out to be 22.61%.

As to `N.N.[Cl][Pt][Cl]` [Cisplatin, cisplatin], the “Inhibition, % Lncap” value in experiment [1] was found to be 94.91%. In experiment [2], the “Inhibition, % SW 480” value is on record as 78.25%. Also, the “Inhibition, % HTB 72” value in the experiment with HTB 72, melanoma cells came to 93.78%.
